Test results as given in US11548891B1, “Quaternary ammonium salts of phenanthroindolizidine and phenanthroquinolizidine alkaloids as hypoxia-targeted anticancer agents” (BATTERJEE MEDICAL COLLEGE, priority 2022, dated 2023).
Like-named read-outs stand apart in the source and are kept apart here.

Columns and labels:
PBS (pH 7.4) solubility = assay type: physicochemical
Protocol: (§1) Water solubility, log D, and PAMPA-BBB were evaluated using the protocols as described in Omran, et. al. [Omran, Z., et. al., Chem. Pharm. Bull., 2019, 67, 1208-1210, incorporated herein by reference in its entirety].

LogD = assay type: physicochemical
Protocol: as §1

HCT116 [1] = experiment: Cytotoxicity under normoxia and hypoxia (anaerobic chamber), HCT116; assay type: cell-based, human; settings: for HCR (Hypoxia Cytotoxicity Ratio = normoxic IC50/hypoxic IC50): HTC 116; for IC50: 4 h exposure
Protocol: (§2) The ability of the designed prodrugs to liberate the active alkaloids in hypoxic tumors was evaluated by testing them under hypoxic conditions using an anaerobic chamber. The three prodrugs 5a-c and their parent alkaloids as well as the reference compounds PR-104A, the parent alcohol form of the phosphate pre-prodrug PR-104, and evofosfamide were tested using the HCT116 and H460 cell lines under both normoxic and hypoxic conditions (Table 5). The prodrugs were much less cytotoxic than the parent drugs, in agreement with the results using the other cell lines described above (see FIG. 6).
(§3) The eight cell lines HEK293 (Human embryonic kidney 293), CHO-Kt (Chinese hamster ovary K1), MCF-7 cells (Human breast adenocarcinoma), HCT116 (human colorectal carcinoma), RKO (Human rectal carcinoma), SW480 (human colorectal carcinoma), H460 (Human lung cancer), and MRCS (Normal human fetal lung fibroblast), were obtained from the ATCC. The cell lines were routinely grown in alpha minimum essential medium (α-MEM) containing 5% fetal calf serum (FCS). The appropriate number of cells (HCT116=400 cells/well, H460 cells=600 cells/well) were seeded into 96-well plates under normoxic or hypoxic conditions. Cells were plated in 100 μL α-MEM containing 10% FCS, 10 mM D-Glucose and 0.2 mM 20-deoxycytidine. After incubation for 2 h, the compounds were added at the appropriate concentration and incubated for further 4 h. The cells were then washed three times with drug-free α-MEM (containing 5% FCS and pen/strep). The plates were then incubated for 5 days under normoxic conditions. The cells were stained with sulphorhodamine B to measure total cells as per the standard procedure described in Skehan, et. al. [Skehan, P., et. al., J. Natl. Cancer Inst., 1990, 82, 1107-1112, incorporated herein by reference in its entirety]. The IC50 was determined by interpolation as the compound concentration reducing staining to 50% of controls on the same plate as per the standard procedure described in Guise, et. al. [Guise, C. P., et. al., Biochem. Pharmacol., 2007, 74, 810-820, incorporated herein by reference in its entirety].

H460 = experiment: Cytotoxicity under normoxia and hypoxia (anaerobic chamber), H460; assay type: cell-based, Human; settings: for HCR (Hypoxia Cytotoxicity Ratio = normoxic IC50/hypoxic IC50): H460; for IC50: 4 h exposure
Protocol: as §2, §3

MRC5 = experiment: Cytotoxicity under normoxia (MTT), MRC5; assay type: cell-based, human
Protocol: (§4) The cytotoxicity of the compounds 5a-c and their parent alkaloids was evaluated by the 3-[4,5-dimethylthiazole-2-yl]-2,5-diphenyltetrazolium bromide (MTT) assay against 5 cancerous and 2 non-cancerous cell lines (Table 4).
as §3

HCT116 [2] = experiment: Cytotoxicity under normoxia (MTT), HCT116; assay type: cell-based, human
Protocol: as §4, §3

MCF7 = experiment: Cytotoxicity under normoxia (MTT), MCF7; assay type: cell-based, Human
Protocol: as §4, §3

[3] = BBB-Parallel Artificial Membrane Permeability Assay (BBB-PAMPA); assay type: in vitro ADME
Protocol: The physicochemical properties of the new compounds were evaluated (Table 1). […] Consequently, these derivatives lost their BBB penetrability, as predicted by the BBB-Parallel Artificial Membrane Permeability Assay (BBB-PAMPA), whereas their parent alkaloids had free passage through the BBB.
as §1

CHO-K1 = experiment: Cytotoxicity under normoxia (MTT), CHO-K1; assay type: cell-based, Chinese hamster
Protocol: as §4, §3

SW480 = experiment: Cytotoxicity under normoxia (MTT), SW480; assay type: cell-based, human
Protocol: as §4, §3

RKO = experiment: Cytotoxicity under normoxia (MTT), RKO; assay type: cell-based, Human; settings: read-out: IC50 RKO
Protocol: as §4, §3

HEK293 = experiment: Cytotoxicity under normoxia (MTT), HEK293; assay type: cell-based, Human
Protocol: as §4, §3

[4] = Mouse microsomal liver stability assay; settings: mouse hepatic microsomes, 2 μM, 37° C.
Protocol: Protoc. […] Microsomal incubations were carried out in 96-well plates in 5 aliquots of 40 μL each. […] Control incubations were performed by replacing the NADPH-cofactor system with PBS. The additional control incubations in PBS (with 3.3 mM MgCl2) without added microsomes were carried out in this study. […] The incubations were performed in duplicates. Five time points over 40 min had been analyzed. The reactions were stopped by adding 12 volumes of 90% acetonitrile-water to incubation aliquots, followed by protein sedimentation by centrifuging at 5500 rpm for 3 min. The supernatants were analyzed using LC-MS as mentioned above.

[5] = HTC 116, hypoxia, read-out: IC50 (Hypoxia)
[6] = HTC 116, normoxia, read-out: IC50 (Normoxia)
[7] = H460, hypoxia, read-out: IC50 (Hypoxia)
[8] = H460, normoxia, read-out: IC50 (Normoxia)
[9] = normoxia, read-out: IC50 HCT116
[10] = normoxia, read-out: IC50 CHO-K1
[11] = normoxia, read-out: IC50 HEK293

Row | SMILES | PBS (pH 7.4) Solubility μM Mean ± SE (PBS (pH 7.4) solubility) [μM] | LogD Mean ± SE (LogD) | HCR (Hypoxia Cytotoxicity Ratio = normoxic IC50/hypoxic IC50) (HCT116 [1]) | IC50 (HCT116 [1]; [5]) [nM] | IC50 (HCT116 [1]; [6]) [nM] | HCR (Hypoxia Cytotoxicity Ratio = normoxic IC50/hypoxic IC50) (H460) | IC50 (H460; [7]) [nM] | IC50 (H460; [8]) [nM] | Permeability (Papp) Log [10^−6 cm/s] Mean ± SE [3] | IC50 (MRC5; normoxia, read-out: IC50 MRC5) [nM] | IC50 (HCT116 [2]; [9]) [nM] | IC50 (MCF7; normoxia, read-out: IC50 MCF7) [nM] | IC50 (SW480; normoxia, read-out: IC50 SW480) [nM] | IC50 (RKO; normoxia) [nM] | other results
1 | Cc1nccn1CC1CCc2c(c3ccccc3n2C)C1=O (stereo not drawn) [Ondansetron] | 96 ± 3 |  |  |  |  |  |  |  |  |  |  |  |  |  | 
2 | COC(=O)Nc1nc2ccc(C(=O)c3ccccc3)cc2[nH]1 [Mebendazole] |  | 3.26 ± 0.01 |  |  |  |  |  |  |  |  |  |  |  |  | 
3 | CS(=O)(=O)OCCN(CCBr)c1c(C(=O)NCCO)cc([N+](=O)[O-])cc1[N+](=O)[O-] [PR-104A] |  |  | 10.5 | 861 | 16500 | 2.5 | 533 | 1340 |  |  |  |  |  |  | 
4 | COc1ccc2c3c(c4cc(OC)c(OC)cc4c2c1)C[C@H]1CCC[N+]1(Cc1c([N+](=O)[O-])ncn1C)C3.[Br-] (stereo partly drawn) [Compound 5a, (13aR)-2,3,6-trimethoxy-10-((1-methyl-4-nitro-1H-imidazol-5-yl)methyl)-10,11,12,13,13a, 14-hexahydro-9H-dibenzo[f,h]pyrrolo[1,2-b]isoquinolin-10-ium bromide] | 154 ± 0 | 0.69 ± 0.01 |  |  |  |  |  |  | <−7 Log [10^−6 cm/s] |  |  |  |  |  | IC50 (MRC5; Homo sapiens, MRC5, read-out: IC50 MRC5): 327 ± 147 nM; IC50 (HCT116 [2]; Homo sapiens, HCT-116, read-out: IC50 HCT116): 1040 ± 21 nM; IC50 (MCF7; Homo sapiens, MCF7, read-out: IC50 MCF7): 1530 ± 144 nM; IC50 (HCT116 [1]; Homo sapiens, HCT-116, HTC 116, hypoxia, read-out: IC50 (Hypoxia)): 425 nM; IC50 (HCT116 [1]; Homo sapiens, HCT-116, HTC 116, normoxia, read-out: IC50 (Normoxia)): 16500 nM; IC50 (CHO-K1; Cricetulus griseus, CHO-K1, read-out: IC50 CHO-K1): 1680 ± 542 nM; IC50 (SW480; Homo sapiens, SW480, read-out: IC50 SW480): 1350 ± 0.126 nM; IC50 (H460; Homo sapiens, NCI-H460, H460, hypoxia, read-out: IC50 (Hypoxia)): 618 nM; IC50 (H460; Homo sapiens, NCI-H460, H460, normoxia, read-out: IC50 (Normoxia)): 15800 nM; IC50 (RKO; Homo sapiens, RKO): 2030 ± 267 nM; IC50 (HEK293; Homo sapiens, HEK293, read-out: IC50 HEK293): 5080 ± 519 nM
5 | COc1ccc2c3c(c4cc(OC)c(OC)cc4c2c1)C[C@H]1CCCN1C3 [(R)-Antofine, (R)-antofine] | 27 ± 2 | 3.68 ± 0.03 | 0.4 | 16.7 | 23.9 | 0.6 | 25.4 | 29.2 | −5.6 ± 0.58 Log [10^−6 cm/s] | 6 ± 2 | 2 | 2 | 9 ± 2 | 2 | Kel, min^−1 (elimination rate constant) [4]: 0.002 ± 0 min⁻¹; t1/2, min [4]: 1.12 ± 0.035 h; IC50 (CHO-K1; [10]): 33 ± 50 nM; IC50 (HEK293; [11]): 340 ± 43 nM
6 | COc1cc2c3c(c4cc(OC)c(OC)cc4c2cc1OC)CN1CCC[C@@H]1C3 [(R)-Tylophorine] |  |  | 0.6 | 56.4 | 1710 | 1.1 | 161 | 175 |  | 95 ± 6 | 440 ± 36 | 101 ± 88 | 1150 ± 244 | 338 ± 61 | 
7 | COc1cc2c3c(c4cc(OC)c(OC)cc4c2cc1OC)CN1CCC[C@H]1C3 [(S)-Tylophorine] | 2 ± 0 | 3.14 ± 0.02 | 0.5 | 50.1 | 35.1 | 1.1 | 102 | 108 | −5.4 ± 0.17 Log [10^−6 cm/s] | 27 ± 2 | 85 ± 6 | 62 ± 13 | 69 ± 20 | 202 ± 3 | Kel, min^−1 (elimination rate constant) [4]: 0.005 ± 0 min⁻¹; t1/2, min [4]: 2.125 ± 0.05 h; IC50 (CHO-K1; [10]): 35 ± 42 nM; IC50 (HEK293; [11]): 16 ± 26 nM
